Data from patent publication US20130281506A1, “COMBINATION OF A NON-STEROIDAL ANTI-INFLAMMATORY DRUG WITH AN ANTI-HISTAMINIC DRUG INTENDED FOR OPHTHALMIC USE” (ALLERGAN, INC., priority 2012, published 2013).
Where a name gives a salt, the structure may show the parent alone.

Assays:
[1] = system: seasonal allergic conjunctivitis; experiment: Randomized, multi-centric, open label clinical study: efficacy on signs and symptoms (itching, hyperemia, chemosis, mucous discharge); type: in vivo, human; details: for mean chemosis score / mean cilliary hyperemia score / mean conjunctival hyperemia score / mean episcleral hyperemia score / mean itching score: score 0-4
From the text: A randomized, multi-centric geographically, open label study to compare the safety and efficacy of the combination of olopatadine hydrochloride 0.1% and ketorolac tromethamine 0.4% w/v ophthalmic solution with olopatadine hydrochloride 0.1% w/v used twice daily for three weeks in adult patients with seasonal allergic conjunctivitis, was completed. The primary objective of this randomized, multi-centric geographically diverse study was to compare the safety and efficacy of the combination of olopatadine and ketorolac with olopatadine in seasonal allergic conjunctivitis. A combination of olopatadine hydrochloride 0.1% w/v and ketorolac tromethamine 0.4% w/v was compared with olopatadine hydrochloride 0.1% w/v alone in the treatment of patients with seasonal allergic conjunctivitis. The test drug was the combination of olopatadine hydrochloride with ketorolac tromethamine compared to olopatadine hydrochloride 0.1% w/v, as three commercially available brands on the market: Winolap®, Opat® and Olo®. These three commercially available brands, as the comparator drug, were provided to the investigators. Any of the three brands of the comparator drug were prescribed by the investigator to the patients per their choice of availability and cost. The patients administered one drop twice daily in each eye for twenty-one days during three weeks. The patients received study medications as well as comparator drug for the entire period. There were five scheduled visits, with screening periods of thirty days and a treatment period of twenty-one days as per protocol. At the end of each visit physicians also rated tolerance and the patient rated acceptability. The efficacy parameters like itching, hyperemia (cilliary, conjunctival, episcleral), chemosis and mucus discharge were compared between groups and scored. The efficacy of the medications was evaluated by comparing the reduction in efficacy parameters, signs and symptoms of allergic conjunctivitis between the treatment groups, based on the twenty-one day period. The efficacy of the study medications was evaluated by comparing the reduction in signs and symptoms of allergic conjunctivitis between the treatment groups. Reduction in the signs and symptoms of allergic conjunctivitis was based on evaluation of efficacy parameters till the end of twenty-one days. For the improvement of allergic conjunctivitis, symptoms like itching, hyperemia, chemosis and mucous discharge were used. The symptoms of allergic conjunctivitis like itching, hyperemia and chemosis were scored as 0, 1, 2, 3 and 4 and mucous discharge was graded as absent or present. [table] Interpretation: •Minimum score: 0; •Maximum score: 4; the higher the score the more severe will be the symptoms of allergic conjunctivitis. In the report, each symptom is graded based on the severity. Efficacy evaluation has been done for first 100 completed cases. The efficacy parameters like itching, hyperemia (cilliary, conjunctival, episcleral), chemosis and mucus discharge were compared between groups.

[2] = system: seasonal allergic conjunctivitis and rhinoconjunctivitis; details: fourth week of treatment; p=0.03; cited from earlier work
[3] = system: adult patients with seasonal allergic conjunctivitis; experiment: Same clinical study: safety, tolerability and acceptability; type: in vivo, human; details: mild transient, no treatment required; observed immediately after instillation of eye drop
From the text: The patients administered one drop twice daily in each eye for twenty-one days during three weeks. The patients received study medications as well as comparator drug for the entire period. There were five scheduled visits, with screening periods of thirty days and a treatment period of twenty-one days as per protocol. At the end of each visit physicians also rated tolerance and the patient rated acceptability.
At the end of the each visit physicians rated tolerance as Excellent (No adverse drug reactions), Good (Mild adverse reaction not requiring other treatment or necessitating drug withdrawal), Fair (Adverse reactions requiring treatment without hospitalization or necessitating drug withdrawal and Poor (Severe or serious reaction requiring hospitalization and withdrawal of drug) and the patient rated acceptability as Good (No untoward incidence), Fair (Mild adverse reaction not interfering day to day activities) and Poor (Adverse reactions affecting regular day to day activities).
The safety of the combination of olopatadine-ketorolac was compared with olopatadin. The safety assessment parameters included the number of patients having adverse events, the types of adverse events, and the number of unexpected, severe or serious adverse events in the two arms.

[4] = visit 3, no statistically significant difference

Which mean chemosis score ([1]; baseline) does the source give for `CN(C)CC/C=C1/c2ccccc2COc2ccc(CC(=O)O)cc21` [olopatadine, olopatadine hydrochloride] here?
Its mean chemosis score is 1.5±0.99.

What about the “mean cilliary hyperemia score” value ([1]; baseline) of the same compound?
The value was 0.94±0.91.

What about the “mean conjunctival hyperemia score” value ([1]; baseline) of the same compound?
The value was 2.28±0.83.

And the “mean episcleral hyperemia score” value ([1]; baseline)?
The value was 0.84±0.79.

What about the mean itching score ([1]; baseline, one drop twice daily in each eye) of the same compound?
Its mean itching score is 3±0.67.

And the “complaints of mucus discharge” value ([1]; final scheduled visit)?
Its value is “all the enrolled patients were free from the complaints of mucus discharge”.

And the mean chemosis score ([1]; visit 2)?
Its mean chemosis score is 1.46±0.95.

What about the “mean cilliary hyperemia score” value ([1]; visit 2) of the same compound?
The value was 0.94±0.91.

What about the “mean conjunctival hyperemia score” value ([1]; visit 2) of the same compound?
Its value is 2.2±0.84.

What about the “mean episcleral hyperemia score” value ([1]; visit 2) of the same compound?
Its value is 0.84±0.79.

And the mean itching score ([1]; visit 3 (first week), p=0.012 between groups)?
Its mean itching score is 2±0.60.

What about the “mean cilliary hyperemia score” value ([1]; visit 3) of the same compound?
Its value is 0.62±0.66.

And the mean chemosis score [1, 4]?
The mean chemosis score was 0.92±0.72.

What about the “mean conjunctival hyperemia score” value [1, 4] of the same compound?
Its value is 1.38±0.86.

And the “mean episcleral hyperemia score” value ([1]; visit 3, p=0.43 printed)?
Its value is 0.62±0.63.

What about the mean itching score ([1]; visit 4 (second week), p=0.009 between groups) of the same compound?
Its mean itching score is 1.28±0.67.

And the “mean conjunctival hyperemia score” value ([1]; visit 4 (second week), p=0.02 between groups)?
Its value is 0.8±0.60.

What about the mean chemosis score ([1]; visit 4 (second week), p=0.029 between groups) of the same compound?
Its mean chemosis score is 0.54±0.57.

What about the “mean episcleral hyperemia score” value ([1]; visit 4) of the same compound?
Its value is 0.36±0.56.

And the “mean cilliary hyperemia score” value ([1]; visit 4, p=0.06 between groups)?
The value was 0.28±0.49.

What about the mean chemosis score ([1]; visit 5 (third week), p=0.00004 between groups) of the same compound?
Its mean chemosis score is 0.3±0.52.

What about the mean itching score ([1]; visit 5 (third week), p=0.00009 between groups) of the same compound?
The mean itching score was 0.78±0.58.

What about the “mean conjunctival hyperemia score” value ([1]; visit 5 (third week), p=0.0003 between groups) of the same compound?
Its value is 0.5±0.54.

And the “mean episcleral hyperemia score” value ([1]; visit 5)?
Its value is 0.18±0.38.

And the “mean cilliary hyperemia score” value ([1]; visit 5, p=0.52 between groups)?
Its value is 0.08±0.34.

What about the “chemosis compared to placebo” value [2] of the same compound?
Its value is “significant decrease”.

What about the “number of patients experiencing an adverse event” value [3] of the same compound?
The value was “three”.
